Data taken from article PMC7253423, “Quassinoid analogs with enhanced efficacy for treatment of hematologic malignancies target the PI3Kγ isoform” (Communications Biology, 2020).

How the values were obtained:
Assay in all cases: Cell cycle assay (PI staining, flow cytometry)
Format in all cases: cell-based, human
[1] = test system: HL-60 cells; conditions: HL-60, 100 nM, 48 h
Description: (§1) Five million cells were harvested, fixed with 80% ethanol for 2 h or overnight at −20 °C, then washed with PBS and incubated with Propidium iodide (PI) staining buffer (0.5 mg/ml propidium iodide in PBS with 50 μg/ml RNase A) for 30 min at room temperature. The stained cells were resuspended in PBS and analyzed on a FACSCalibur system (Becton Dickinson, San Jose, CA, USA) using FlowJo software (TreeStar, San Carlos, CA, USA).

[2] = test system: K562 cells; conditions: K562, 100 nM, 48 h
Description: as §1

[3] = test system: Raji cells; conditions: 100 nM, 48 h
Description: as §1

[4] = test system: SU-DHL-4 cells; conditions: SU-DHL-4, 100 nM, 48 h
Description: as §1

Substance: Brusatol
- Sub-G1 population [1]: 7.63%
- Sub-G1 population [2]: 3.19%
- Sub-G1 population [3]: 68.4%
- Sub-G1 population [4]: 67.9%
